Assay results taken from ChEMBL document CHEMBL3045902, “Actions of imidacloprid, clothianidin and related neonicotinoids on nicotinic acetylcholine receptors of American cockroach neurons and their relationships with insecticidal potency” (J Pestic Sci, 2006).
Activity calls are given as the source filed them. The calls are words filed in the database; no cut-off is given here.

Legend:
[1] = target: T1, Nicotinic acetylcholine receptor alpha8 subunit (Periplaneta americana) (UniProt H6TY12); test: Agonist activity at Periplaneta americana (American cockroach) nAChR in terminal abdominal ganglion assessed as assessed as inward current by tight-seal whole cell patch clamp method relative to 100 uM ACh; format: tissue-based
T1 sequence (whole entry): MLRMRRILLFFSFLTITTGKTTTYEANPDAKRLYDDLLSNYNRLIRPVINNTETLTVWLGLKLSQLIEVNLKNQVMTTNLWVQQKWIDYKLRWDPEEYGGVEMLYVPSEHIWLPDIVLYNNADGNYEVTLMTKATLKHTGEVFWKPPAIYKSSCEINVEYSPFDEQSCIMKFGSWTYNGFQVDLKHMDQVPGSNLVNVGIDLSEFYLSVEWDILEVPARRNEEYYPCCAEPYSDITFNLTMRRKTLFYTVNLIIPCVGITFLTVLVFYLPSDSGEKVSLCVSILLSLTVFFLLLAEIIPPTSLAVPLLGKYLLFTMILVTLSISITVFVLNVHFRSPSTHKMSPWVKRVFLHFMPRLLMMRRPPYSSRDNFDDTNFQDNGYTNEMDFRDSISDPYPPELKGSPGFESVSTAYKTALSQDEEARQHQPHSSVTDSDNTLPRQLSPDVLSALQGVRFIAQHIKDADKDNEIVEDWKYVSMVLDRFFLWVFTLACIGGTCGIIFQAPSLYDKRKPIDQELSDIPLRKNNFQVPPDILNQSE

Periplaneta americana = test: Insecticidal activity against Periplaneta americana (American cockroach) assessed as killing measured per insect at 25 to 28 degC for 24 hr in presence of piperonyl butoxide; format: functional
[2] = target: T2, Nicotinic acetylcholine receptor alpha8 subunit (Periplaneta americana, UniProt H6TY12); test: Agonist activity at Periplaneta americana (American cockroach) nAChR in terminal abdominal ganglion assessed as assessed as inward current by tight-seal whole cell patch clamp method; format: tissue-based
T2 sequence (H6TY12 whole entry): T1 sequence (whole entry)

[3] = Hydrophobicity, log K of the compound by HPLC; format: physicochemical

O=[N+]([O-])/C=C1\NCCN1Cc1cnc(Cl)s1
Imax [1]: 0.3 | pMLD (Periplaneta americana): 10.2 | EC50 [2]: 15.8 nM | log K [3]: 0.03

C/N=C(\NCc1ccc(Cl)nc1)N[N+](=O)[O-]
Imax [1]: 0.31 | pMLD (Periplaneta americana): 9.52 | EC50 [2]: 1860 nM | log K [3]: 0.11

O=[N+]([O-])NC1=NCCN1Cc1ccc(Cl)nc1 [IMIDACLOPRID]
EC50 [2]: 1320 nM | log K [3]: 0.23

CN/C(=C\[N+](=O)[O-])NCc1ccc(Cl)nc1
Imax [1]: 0.44 | pMLD (Periplaneta americana): 9.22 | EC50 [2]: 38.9 nM | log K [3]: 0.16

CN/C(=N\[N+](=O)[O-])NCc1cnc(Cl)s1 [CLOTHIANIDINE]
Imax [1]: 0.68 | pMLD (Periplaneta americana): 10.2 | EC50 [2]: 1580 nM | log K [3]: 0.17

O=[N+]([O-])/C=C1\NCCN1Cc1ccc(Cl)nc1
Imax [1]: 0.24 | pMLD (Periplaneta americana): 10.1 | EC50 [2]: 72.4 nM | log K [3]: 0.05

O=[N+]([O-])/N=C1\NCCN1Cc1ccc(Cl)nc1 [IMIDACLOPRID]
Imax [1]: 0.11 | pMLD (Periplaneta americana): 10.4

CN/C(=C\[N+](=O)[O-])NCc1cnc(Cl)s1
Imax [1]: 0.47 | pMLD (Periplaneta americana): 10.2 | EC50 [2]: 19.5 nM | log K [3]: 0.14

CC(=O)OCC[N+](C)(C)C [ACETYLCHOLINE]
pMLD (Periplaneta americana): inactive | EC50 [2]: 11500 nM

O=[N+]([O-])/N=C1\NCCN1Cc1cnc(Cl)s1 [IMIDACLOTHIZ]
Imax [1]: 0.3 | pMLD (Periplaneta americana): 9.07 | EC50 [2]: 1580 nM | log K [3]: 0.28
